From patent publication US20130039952A1, “CALCIPOTRIOL MONOHYDRATE NANOCRYSTALS” (LEO PHARMA A/S, priority 2009, published 2013)
Blank lines part the entries; values can stand above or below the compound they belong to.

What was measured:
[1] = DSC analysis of the amount of amorphous calcipotriol; assay type: physicochemical; details: two batches, DSC at 100, 300 and 500° C./min under N2
Protocol: The amount of amorphous calcipotriol generated in this method was determined on two batches of calcipotriol nanocrystals prepared by the method using DSC analysis at a heating rate of 100° C., 300° C. and 500° C./min. under a N2 atmosphere. The instrument used for the analysis was a Perkin Elmer DSC 8500.

[2] = Particle size by dynamic light scattering; assay type: physicochemical; details: Zetasizer Nano ZS90, after high pressure homogenization
From the text: The term “particle size distribution” is intended to mean the span between the smallest and largest calcipotriol monohydrate crystal as determined by dynamic light scattering (also known as photon correlation spectroscopy) using a Zetasizer Nano ZS or ZS90 according to the manufacturer's instructions (available from Malvern Instruments, UK). Dynamic light scattering determines the size of solid particles suspended in a liquid by illuminating the particles with a laser and analysing the intensity fluctuations in the scattered light resulting from the Brownian motions of the particles in the liquid. Intensity fluctuations are correlated to particle size in that larger particles move more slowly than smaller particles, i.e. the intensity fluctuation is slower.

[3] = test system: gene encoding cathelicidin; assay: Cathelicidin gene activation in reconstructed human epidermis, ointments; assay type: cell-based; details: 5% vs 10% or 15% by weight of glycerol in the composition
From the text: In psoriasis, the level of cathelicidin is increased in lesional skin of psoriasis patients. […] This finding has been utilized to develop an assay in which the uptake and biological activity of calcipotriol in human keratinocytes from the tested compositions has been determined by measuring the level of induction of the gene encoding cathelicidin.
Compositions A, C and D prepared as described in Example 2 above were applied topically in triplicate on reconstructed human epidermis consisting of normal human keratinocytes cultured for 12 days on 0.5 cm^2 polycarbonate filters (available from SkinEthic® Laboratories, Nice, France) in an amount of 10 μl. The tissue was treated for two days followed by separation of the epidermis from the polycarbonate filter and snap-frozen in liquid nitrogen. RNA was extracted from the cells and cDNA synthesized by conventional procedures. qPCR was then performed using the following assays from Applied Biosystems: CAMP Hs0018038_ml and GAPDH Hs99999905_ml. The expression levels of cathelicidin were normalized to GAPDH and a relative quantification was made by comparison with Daivonex® ointment.

[4] = test system: IL-1α; assay: Release of IL-1α with glycerol in a calcipotriol ointment; details: 5%, 10% and 15% by weight of glycerol in a calcipotriol ointment
[5] = M. Hannuksela et al., Contact Dermatitis 1, 1975; cited from earlier work

mean particle size [2]: 350-400 nm | particle size distribution [2]: 200-600 nm
SMILES: C=C1/C(=C\C=C2/CCC[C@]3(C)[C@@H]([C@H](C)/C=C/[C@@H](O)C4CC4)CC[C@@H]23)C[C@@H](O)C[C@@H]1O [calcipotriol monohydrate nanocrystals, Calcipotriol monohydrate]
amount of amorphous calcipotriol [1]: only insignificant amounts of amorphous calcipotriol

SMILES: OCC(O)CO [glycerol]
expression of cathelicidin / biological activity of calcipotriol [3]: potentiating the biological activity of calcipotriol | release of IL-1α [4]: reduce the release of IL-1α in a dose-dependent manner

SMILES: CC(O)CO (stereo not drawn) [propylene glycol]
number of irritant reactions [5]: 12.5%
